Laboratory results as given in ChEMBL document CHEMBL1201862, “PubChem BioAssay data set” (2004).
“And” between values parts separate entries of the source, which are not always exact repeats. Equal entries are not always repeated.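 48-hour exposure; five concentrations; linearly interpolated endpoints. GI50 marks 50% less growth.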 The source made the active and inactive calls. Cut-off read from the data, not from the text of the source: active = GI50 up to about 1.1 µM and inactive = higher.

Key:
Assay in all cases: NCI-60 cell line screen, 48 h
RPMI-8226 = system: RPMI-8226
RXF 393 = system: RXF 393
NCI-H23 = system: NCI-H23
CCRF-CEM = system: CCRF-CEM
HL-60 = system: HL-60
PC-3 = system: PC-3
786-0 = system: 786-0
SNB-19 = system: SNB-19
OVCAR-4 = system: OVCAR-4
ACHN = system: ACHN
COLO 205 = system: COLO 205
SF-539 = system: SF-539
TK-10 = system: TK-10
Malme-3M = system: Malme-3M
MDA-N = system: MDA-N
MDA-MB-435 = system: MDA-MB-435
SF-268 = system: SF-268
UO-31 = system: UO-31
DU-145 = system: DU-145
SNB-75 = system: SNB-75

Measured: GI50

NCC1OC(n2cnc3c(=O)[nH]c(N)nc32)C(O)C1O (centres undefined)
inactive: RPMI-8226 2.13 µM | RXF 393 > 100 µM | NCI-H23 > 100 µM | CCRF-CEM > 82.8 µM | HL-60 > 100 µM | PC-3 > 100 µM | 786-0 > 100 µM | SNB-19 > 100 µM | OVCAR-4 > 100 µM | ACHN > 100 µM | COLO 205 > 100 µM | SF-539 > 100 µM | TK-10 > 59.7 µM | Malme-3M > 100 µM | MDA-N > 100 µM | MDA-MB-435 > 100 µM | SF-268 > 100 µM | UO-31 > 100 µM | DU-145 > 100 µM

O=C1C/C(=N/c2ccc(Cl)cc2)C(c2ccccc2)N1c1ccccc1 (centres undefined)
inactive: RPMI-8226 2.28 µM | RXF 393 35 µM | NCI-H23 10 µM | HL-60 2.96 µM | PC-3 3.28 µM | 786-0 38.4 µM | SNB-19 19.9 µM | OVCAR-4 14.3 µM | ACHN 6.43 µM | COLO 205 3.66 µM | SF-539 14 µM | TK-10 23.9 µM | Malme-3M 19.5 µM | MDA-N 2.5 µM | MDA-MB-435 2.15 µM | SF-268 3.6 µM | UO-31 5.41 µM | DU-145 6.61 µM

CC(=O)N(C)C(C(=O)N1CC(C)CC1C(=O)N(C)C1C(=O)NC(CC(C)C)C(=O)N2CC(C)CC2C(=O)NC(CC(C)C)C(=O)N(C)C(C(C)C)C(=O)N2CCCC2C(=O)N(C)C(CC(C)C)C(=O)NCC(=O)OC1C)C(C)C (centres undefined)
inactive: RPMI-8226 > 100 µM | RXF 393 > 100 µM | NCI-H23 > 100 µM | CCRF-CEM > 100 µM | HL-60 > 100 µM | PC-3 > 100 µM | 786-0 > 100 µM | SNB-19 > 100 µM | OVCAR-4 > 100 µM | ACHN > 100 µM | COLO 205 > 100 µM | SF-539 > 100 µM | SNB-75 > 100 µM | TK-10 > 100 µM | MDA-N > 100 µM | MDA-MB-435 > 100 µM | SF-268 > 100 µM | UO-31 > 100 µM | DU-145 > 100 µM

C=CCN(Cc1ccncc1)C(=O)C(O)(c1ccccc1)c1ccccc1
inactive: RPMI-8226 22 µM | RXF 393 > 100 µM | NCI-H23 54.3 µM | CCRF-CEM 35.8 µM | HL-60 35.3 µM | PC-3 37.2 µM | 786-0 > 100 µM | SNB-19 95.7 µM | ACHN > 100 µM | COLO 205 45.8 µM | SF-539 70.6 µM | SNB-75 85.9 µM | TK-10 > 100 µM | Malme-3M 51.9 µM | MDA-N 45.8 µM | MDA-MB-435 17.3 µM | SF-268 > 100 µM | UO-31 17.5 µM | DU-145 > 100 µM

CCOC(=O)N(Cc1cccs1)c1cc(OC)c(OC)c(OC)c1
inactive: RPMI-8226 25.8 µM | RXF 393 83 µM | NCI-H23 > 100 µM | CCRF-CEM 41 µM | HL-60 34.8 µM | PC-3 33.1 µM | 786-0 > 100 µM | SNB-19 > 100 µM | OVCAR-4 32.1 µM | ACHN > 100 µM | COLO 205 7.18 µM | SNB-75 49.4 µM | TK-10 > 100 µM | Malme-3M > 100 µM | MDA-N 28.9 µM | MDA-MB-435 17.4 µM | SF-268 > 100 µM | UO-31 38.4 µM | DU-145 > 100 µM

Cc1c(C(=O)O)n2cnnc2c2ccccc12
inactive: RPMI-8226 > 100 µM | RXF 393 > 100 µM | NCI-H23 > 100 µM | CCRF-CEM > 100 µM | HL-60 > 100 µM | PC-3 > 100 µM | 786-0 > 100 µM | SNB-19 > 100 µM | OVCAR-4 > 100 µM | ACHN > 100 µM | COLO 205 > 100 µM | SF-539 > 100 µM | TK-10 > 100 µM | MDA-N > 100 µM | MDA-MB-435 > 100 µM | SF-268 > 100 µM | UO-31 > 100 µM | DU-145 > 100 µM

Cc1cccc2oc3c(c(=O)c12)CC(O)C(C)(C)O3 (centres undefined)
inactive: RPMI-8226 74.1 µM | RXF 393 74 µM | NCI-H23 > 100 µM | CCRF-CEM 28.2 µM | HL-60 23.9 µM | PC-3 > 100 µM | 786-0 > 100 µM | SNB-19 > 100 µM | OVCAR-4 > 100 µM | ACHN > 100 µM | COLO 205 > 100 µM | SF-539 > 100 µM | TK-10 > 100 µM | Malme-3M > 100 µM | MDA-N > 100 µM | MDA-MB-435 > 100 µM | SF-268 > 100 µM | UO-31 > 100 µM | DU-145 > 100 µM

N=C(c1cccs1)C1(N2CCCCC2)CCCCC1
inactive: RPMI-8226 16.5 µM | RXF 393 14.6 µM | NCI-H23 24.3 µM | CCRF-CEM 17.7 µM | HL-60 13.2 µM | PC-3 18.7 µM | 786-0 70.5 µM | SNB-19 17.5 µM | OVCAR-4 20.5 µM | ACHN 16.9 µM | TK-10 17.3 µM | Malme-3M 14.6 µM | MDA-N 49.5 µM | MDA-MB-435 18.2 µM | SF-268 21.1 µM | UO-31 16.1 µM | DU-145 15.8 µM

CCN(CC)c1nc(N(C)C)c2cc(OC)ccc2n1
inactive: RPMI-8226 20.1 µM | RXF 393 24.3 µM | NCI-H23 29.6 µM | HL-60 16.6 µM | PC-3 33.2 µM | 786-0 20.7 µM | SNB-19 48.6 µM | OVCAR-4 43.6 µM | ACHN 33 µM | COLO 205 11.7 µM | SF-539 21.3 µM | TK-10 34.4 µM | Malme-3M 20.3 µM | MDA-N 24.7 µM | MDA-MB-435 30.1 µM | SF-268 25.8 µM | UO-31 19.3 µM | DU-145 42.2 µM

COc1ccc(/C(Br)=C2\OC(=O)c3ccccc32)cc1
inactive: RPMI-8226 > 10 µM | RXF 393 > 10 µM | NCI-H23 > 10 µM | CCRF-CEM > 10 µM | HL-60 > 10 µM | PC-3 > 10 µM | 786-0 > 10 µM | SNB-19 > 10 µM | OVCAR-4 > 10 µM | ACHN > 10 µM | COLO 205 > 10 µM | SF-539 > 10 µM | SNB-75 > 10 µM | TK-10 > 10 µM | MDA-N > 10 µM | MDA-MB-435 > 10 µM | SF-268 > 10 µM | UO-31 > 10 µM | DU-145 > 10 µM

COc1cc(/C=C/c2nc(N)nnc2C)cc(OC)c1OC
inactive: RPMI-8226 14.1 µM | RXF 393 22.9 µM | NCI-H23 13.9 µM | CCRF-CEM 6 µM | HL-60 3.03 µM | PC-3 11.4 µM | 786-0 21.5 µM | SNB-19 23.4 µM | OVCAR-4 27.9 µM | ACHN 15.5 µM | COLO 205 10.3 µM | TK-10 > 43.8 µM | Malme-3M 13.6 µM | MDA-N 35.2 µM | MDA-MB-435 9.33 µM | SF-268 21.5 µM | UO-31 4.71 µM | DU-145 > 57 µM

CC(C)(C)OC(=O)N1C(C2=COc3ccccc3O2)=COc2ccccc21
inactive: RPMI-8226 13.9 µM | RXF 393 5.18 µM | NCI-H23 29.7 µM | HL-60 19 µM | PC-3 32.8 µM | 786-0 38.1 µM | SNB-19 34.9 µM | OVCAR-4 36.8 µM | ACHN 24.7 µM | COLO 205 19.4 µM | SF-539 19.3 µM | SNB-75 35 µM | TK-10 33.6 µM | Malme-3M 22.9 µM | MDA-N 32.4 µM | MDA-MB-435 31.3 µM | SF-268 21.3 µM | UO-31 30 µM | DU-145 28 µM

CC(=O)OC(/C=C/c1ccccc1)P1(=O)N(CC(C)(C)C)[C@@H]2CCCC[C@H]2N1CC(C)(C)C (some centres undefined)
inactive: RPMI-8226 3.1 µM | RXF 393 3.24 µM and 6.08 µM | NCI-H23 7.05 µM and 5.18 µM | CCRF-CEM 4.81 µM and 4.38 µM | HL-60 5.37 µM and 5.71 µM | PC-3 3.44 µM and 3.03 µM | 786-0 9.62 µM and 7.38 µM | SNB-19 10.5 µM and 8.15 µM | OVCAR-4 5.35 µM and 5.22 µM | ACHN 10 µM and 7.57 µM | COLO 205 3.69 µM and 3.6 µM | SF-539 8.11 µM and 13.6 µM | Malme-3M 12.3 µM and 13.1 µM | MDA-N 11 µM and 7.73 µM | MDA-MB-435 7.36 µM and 10 µM | SF-268 10.9 µM and 8.45 µM | UO-31 7.18 µM and 4.19 µM | DU-145 10.4 µM and 9.75 µM

COc1cc(-c2cn(S(=O)(=O)c3ccc(C)cc3)c3ccccc23)nc(-c2cn(S(=O)(=O)c3ccc(C)cc3)c3ccccc23)n1
inactive: CCRF-CEM 12.2 µM | HL-60 2.19 µM | 786-0 1.35 µM | OVCAR-4 1.99 µM | SNB-75 4.42 µM | TK-10 8.22 µM
active: RPMI-8226 0.375 µM | RXF 393 0.372 µM | NCI-H23 0.245 µM | PC-3 0.773 µM | SNB-19 0.54 µM | ACHN 0.927 µM | COLO 205 0.745 µM | SF-539 0.222 µM | MDA-N 0.441 µM | MDA-MB-435 0.18 µM | SF-268 0.755 µM | UO-31 0.968 µM | DU-145 0.625 µM
